The term IC50 denotes the point on the concentration scale where inhibition reaches its midpoint. As usually defined, the solubility is the concentration that dissolves in the medium under given conditions. Low values mean little dissolved substance, high ones much dissolved substance. Broadly, the melting point is the temperature of the solid-liquid transition.

The structures appear in SMILES notation. Values after ≈ are worked out from the molar mass of the structure shown. Read-outs that look alike come from different tables or passages of the source.

Data set [1] deals with HeLa (human cervical carcinoma) cells. Kind of data set: Cell growth assay (XTT), HeLa. The data set is classed as cell-based. The note with it: 72 h drug exposure, read-out: Antiproliferative activity IC50 HeLa. The method, then: (§1) The presence of mycoplasma was routinely checked with MycoAlert kit (Lonza-Cambrex) and only mycoplasma-free cells were used in the experiments. Tumour cell lines were kindly provided by Dr Faustino Mollinedo from Centro de Investigaciones Biológicas Margarita Salas, Madrid, Spain. To determine cell growth, cells in exponential growth phase were seeded (100 µL/well in 96-well plates) with appropriate cell concentration (1.5 × 10^4 cells/mL for MCF7, HeLa and HEK-293 and 3 × 10^4 cells/mL for HT-29) in complete DMEM or RPMI 1640 medium (see above) at 37 °C and 5% CO2 atmosphere. After 24 h incubation, to allow cells to attach to the plates, all compounds were added at 1 µM concentration (10 µL/well in 96-well plates) and the effect on the proliferation was evaluated 72 h post-treatment. Compounds showing antiproliferative effects at tested concentration were selected for IC50 calculation (50% inhibitory concentration compared to the untreated controls) from 10^−5 to 10^−10 M concentration. Nonlinear curves fitting the experimental data were carried out for each compound. […] A freshly prepared mixture solution of XTT labelling reagent with 0.02% (v/v) PMS (N-methyl-dibenzopyrazine methyl sulfate) electron coupling reagent was added to cells (50 µL/well in 96-well plates, the total volume of 160 µL/well) and were incubated during the corresponding time according to each cell line (4 h for MCF7 and HeLa and 6 h for HT-29 and HEK-293) in a humidified atmosphere (37 °C, 5% CO2). The absorbance of the formazan product generated was measured at a test wavelength of 450 nm using a multi-well plate reader (Ultra Evolution, Tecan, Männedorf, Suiza). Compounds were dissolved in DMSO and the final solvent concentrations never exceeded 0.5% (v/v). The control wells included treated cells with 0.5% (v/v) DMSO and the positive control. 10 µM verapamil was included as a control for the HT-29 cell line. Measurements were performed in triplicate, and each experiment was repeated three times.

Data set [2] deals with HT-29 (human colon carcinoma) cells. Kind of data set: Cell growth assay (XTT), HT-29, alone or with verapamil. Type of data set: cell-based. The method, then: as §1, with “Compounds showing antiproliferative effects at tested concentration were selected for IC50 calculation (50% inhibitory concentration compared to the untreated controls) from 10^−5 to 10^−10 M concentration.” left out
(Tetrazolium dyes change colour on reduction, which living cells bring about.)

In data set [3] the target is T1, microtubular protein isolated from calf brain (Bos taurus, UniProt P81947+Q6B856).
T1 construct: isolated from calf brain according to the modified Shelanski method; from tissue; host or cells: calf brain
T1 sequence (Q6B856 whole entry): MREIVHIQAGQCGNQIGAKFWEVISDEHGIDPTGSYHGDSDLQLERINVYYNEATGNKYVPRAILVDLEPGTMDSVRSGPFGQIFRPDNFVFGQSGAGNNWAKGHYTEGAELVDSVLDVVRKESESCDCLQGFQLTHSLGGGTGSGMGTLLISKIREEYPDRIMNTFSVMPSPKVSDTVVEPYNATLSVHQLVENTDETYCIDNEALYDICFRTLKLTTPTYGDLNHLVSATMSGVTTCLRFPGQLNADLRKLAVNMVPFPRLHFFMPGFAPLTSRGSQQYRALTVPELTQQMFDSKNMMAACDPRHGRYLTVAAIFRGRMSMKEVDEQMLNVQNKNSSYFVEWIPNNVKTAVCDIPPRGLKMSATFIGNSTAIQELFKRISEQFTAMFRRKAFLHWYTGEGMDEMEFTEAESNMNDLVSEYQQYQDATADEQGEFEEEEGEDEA
T1 sequence (P81947 whole entry): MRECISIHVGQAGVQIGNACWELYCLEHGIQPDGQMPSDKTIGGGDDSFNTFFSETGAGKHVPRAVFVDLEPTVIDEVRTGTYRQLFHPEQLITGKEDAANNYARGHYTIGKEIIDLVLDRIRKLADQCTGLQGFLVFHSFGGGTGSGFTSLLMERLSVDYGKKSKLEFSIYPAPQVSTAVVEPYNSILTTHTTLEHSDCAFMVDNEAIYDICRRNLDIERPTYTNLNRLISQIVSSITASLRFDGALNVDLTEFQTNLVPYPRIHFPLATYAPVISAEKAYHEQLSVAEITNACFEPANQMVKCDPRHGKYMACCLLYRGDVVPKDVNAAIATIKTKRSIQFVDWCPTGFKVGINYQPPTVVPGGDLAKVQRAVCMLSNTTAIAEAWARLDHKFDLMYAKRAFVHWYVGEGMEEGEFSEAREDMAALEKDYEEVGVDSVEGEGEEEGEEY
Kind of data set: Inhibition of tubulin polymerisation (turbidity). The data set is classed as biochemical. Conditions: for TPI % 10 µM: 10 µM compound, 1.5 mg/mL microtubular protein; for IC50: in vitro tubulin polymerisation inhibition, read-out: TPI IC50. The procedure: Microtubular protein was isolated from calf brain according to the modified Shelanski method[23]^,[24] by two cycles of temperature-dependent assembly/disassembly and stored at −80 °C. Before each use, protein concentration is determined by Bradford method[25] taking BSA as standard. Tubulin polymerisation was monitored using a Helios α spectrophotometer by measuring the increase in turbidity at 450 nm, caused by a shift from 4 °C to 37 °C, which allows the in vitro microtubular protein to depolymerise and to polymerise, respectively. The assay was carried out in quartz cuvettes containing 1.5 mg/mL microtubular protein and the ligand (except for control cuvette with only DMSO at the same concentration) in a mixture of 0.1 M MES buffer, 1 mM EGTA, 1 mM MgCl2, 1 mM β-ME, and 1.5 mM GTP at pH 6.7 (final volume 500 µL). Cuvettes were preincubated at 20 °C for 30 min, to allow ligand binding to tubulin, and subsequently cooled on ice for 10 min. Then, the experiment starts at 4 °C to establish the initial baseline. The assembly process was initiated by a temperature shift to 37 °C and the turbidity produced by tubulin polymerisation can be measured by an absorbance increase. After reaching a stable plateau, the temperature was switched back to 4 °C to return to the initial absorption values (to confirm the reversible nature of the monitored process and to determine whether or not the microtubular protein has stabilized). The difference in amplitude between the stable plateau and the initial baseline of the curves was taken as the degree of tubulin polymerisation for each experiment. […] All compounds were tested at 10 µM concentration. IC50 values were calculated for compounds that inhibit tubulin polymerisation more than 50% at 10 µM. […] All the measurements were carried out in at least two independent experiments using microtubular protein from different preparations.

The nature of data set [4]: Aqueous solubility (saturation shake-flask, UV). Type of data set: physicochemical. Conditions: aqueous buffer, thermodynamic from solid, pH 7.0 phosphate buffer, room temperature. The method, then:
The aqueous solubility was determined in a Helios-α UV-320 Spectrophotometer Thermo-Spectronic, Thermo Fischer Scientific, Waltham, MA, USA) using an approach based on the saturation shake-flask method. 1–2 mg of each selected compound was suspended in 300 µL pH 7.0 buffer and stirred for 48 h at room temperature. The resulting mixture was filtered through a […] filter to discard the insoluble residues. A scan between 270 and 400 nm for the tested compound was performed and three wavelengths of maximum absorbance were selected. Calibration curves were performed at these wavelengths and the concentration in the supernatant was measured by UV absorbance. The final value was given as the average of the three measurements.

For data set [5], the system named is MCF7 (human breast carcinoma) cells. Kind of data set: Cell growth assay (XTT), MCF7. Type of data set: cell-based. The note with it: for IC50: Homo sapiens, MCF7, 72 h drug exposure, XTT, read-out: Antiproliferative activity IC50 MCF7; for Fold more potent against MCF7 than against HeLa: ratio of IC50 values. The method, then: as §1
Where [6] appears, read: Homo sapiens, HT-29, 72 h drug exposure, XTT, read-out: Antiproliferative activity IC50 HT-29.
Setting [7] is: 72 h, in the presence of Pgp/MDR1 inhibitor verapamil (10 µM), read-out: Antiproliferative activity IC50 HT-29 Verap.

`COc1ccc(S(=O)(=O)N(C)c2cc(OC)c(OC)cc2Br)cc1` [Compound 14, N-(2-bromo-4,5-dimethoxyphenyl)-4-methoxy-N-methylbenzenesulphonamide]: the melting point is 136 to 141 °C. The IC50 in data set [1] was found to be 557 nM. Moreover, the IC50 in data set [2] (setting [6]) stood at 907 nM. Further, in data set [3], the “TPI % 10 µM” value was determined as 0% and the IC50 is over 10000 nM. This compound returned a solubility at 48 h in data set [4] of 61 µg/mL (≈ 147 µM).

Compound `COc1ccc(S(=O)(=O)Nc2ccc(OC)c(OC)c2)cc1` [Compound 11, N-(3,4-dimethoxyphenyl)-4-methoxybenzenesulphonamide] came in with a melting point of 101 to 102 °C. Moreover, in data set [1], the half-inhibitory concentration (IC50) is over 1000 nM. Besides, the IC50 in data set [5] is over 1000 nM. Further, the IC50 in data set [2] (setting [6]) is over 1000 nM. Also, in data set [3], the “TPI % 10 µM” value was 4% and the IC50 was over 10000 nM. In data set [4], this compound yielded a solubility at 48 h of 82 µg/mL (≈ 254 µM).

Regarding `COc1ccc(S(=O)(=O)N(CC#N)c2cc(OC)c(OC)cc2OC)cc1` [Compound 35, N-(cyanomethyl)-4-methoxy-N-(2,4,5-trimethoxyphenyl)benzenesulphonamide], the melting point was 173 to 180 °C. For the same compound, the IC50 in data set [1] amounted to 500 nM. Also, in data set [5], the IC50 amounted to 67 nM and the “Fold more potent against MCF7 than against HeLa” value is recorded as 4–7 fold. Also, the IC50 in data set [2] (setting [7]) amounted to 415 nM. For the same compound, in data set [2] (setting [6]), the IC50 stood at 365 nM. In addition, in data set [3], the “TPI % 10 µM” value stood at 5% and the IC50 is over 10000 nM. Moreover, the solubility at 48 h in data set [4] stood at 15 µg/mL (≈ 38.2 µM).

Compound `COc1ccc(S(=O)(=O)Nc2cc(OC)c(OC)cc2OC)cc1` [Compound 32, 4-Methoxy-N-(2,4,5-trimethoxyphenyl)benzenesulphonamide] displayed a melting point of 112 to 114 °C. Moreover, the IC50 in data set [1] came to 410 nM. For the same compound, the IC50 in data set [5] was determined as 580 nM. Moreover, the half-maximal inhibitory concentration (IC50) in data set [2] (setting [7]) was 553 nM. Further, the IC50 in data set [2] (setting [6]) was determined as 360 nM. In data set [3], the “TPI % 10 µM” value is recorded as 3% and the IC50 is over 10000 nM. Further, the solubility at 48 h in data set [4] was 213 µg/mL (≈ 603 µM).

In the case of `COc1ccc(S(=O)(=O)N(CC#N)c2cc(OC)c(OC)cc2Br)cc1` [Compound 16, N-(2-bromo-4,5-dimethoxyphenyl)-N-(cyanomethyl)-4-methoxybenzenesulphonamide], the melting point was 76 to 84 °C. In addition, the IC50 in data set [1] worked out at 407 nM. The IC50 in data set [5] was 575 nM. Moreover, the IC50 in data set [2] (setting [7]) worked out at 750 nM. In addition, the IC50 in data set [2] (setting [6]) amounted to 360 nM. Further, in data set [3], the “TPI % 10 µM” value is reported as 16% and the IC50 is over 10000 nM. The solubility at 48 h in data set [4] stood at 13 µg/mL (≈ 29.5 µM).

The compound `COc1ccc(S(=O)(=O)Nc2cc(OC)ccc2OC)cc1` [Compound 21, N-(2,5-dimethoxyphenyl)-4-methoxybenzenesulphonamide] showed a melting point of 114 to 115 °C. For the same compound, the IC50 in data set [1] came to 227 nM. Further, in data set [5], the IC50 came out at 350 nM. The IC50 in data set [2] (setting [6]) turned out to be 187 nM. In data set [3], the “TPI % 10 µM” value stood at 0% and the IC50 was over 10000 nM. In data set [4], this compound had a solubility at 48 h of 13 µg/mL (≈ 40.2 µM).

Turning to `COc1ccc(S(=O)(=O)N(C)c2cc(OC)c(OC)cc2OC)cc1` [Compound 33, 4-Methoxy-N-methyl-N-(2,4,5-trimethoxyphenyl)benzenesulphonamide], the melting point fell in the range of 137 to 143 °C. The IC50 in data set [1] is 413 nM. Moreover, in data set [5], the IC50 is 99 nM and the “Fold more potent against MCF7 than against HeLa” value is on record as 4–7 fold. The IC50 in data set [2] (setting [7]) was determined as 577 nM. In addition, the IC50 in data set [2] (setting [6]) came to 500 nM. Further, in data set [3], the “TPI % 10 µM” value was 0% and the IC50 is over 10000 nM. Also, the solubility at 48 h in data set [4] was determined as 157 µg/mL (≈ 427 µM).

In turn, `COc1ccc(S(=O)(=O)Nc2cc(OC)c(OC)cc2Br)cc1` [Compound 13, N-(2-bromo-4,5-dimethoxyphenyl)-4-methoxybenzenesulphonamide] yielded a melting point of 162 to 167 °C. Besides, in data set [1], the IC50 came out at 510 nM. In addition, the IC50 in data set [2] (setting [6]) came to 543 nM. Besides, in data set [3], the “TPI % 10 µM” value was determined as 0% and the IC50 was over 10000 nM. The compound further returned a solubility at 48 h in data set [4] of 22 µg/mL (≈ 54.7 µM).

`CCN(c1cc(OC)c(OC)cc1Br)S(=O)(=O)c1ccc(OC)cc1` [Compound 15, N-(2-bromo-4,5-dimethoxyphenyl)-N-ethyl-4-methoxybenzenesulphonamide] had a melting point of 111 to 117 °C. Also, the IC50 in data set [1] was determined as 313 nM. In data set [5], the IC50 came out at 660 nM. In addition, the IC50 in data set [2] (setting [7]) is 500 nM. Moreover, the IC50 in data set [2] (setting [6]) amounted to 365 nM. Also, in data set [3], the “TPI % 10 µM” value came out at 24% and the IC50 is over 10000 nM. In data set [4], the solubility at 48 h stood at 26 µg/mL (≈ 60.4 µM).

In the case of `COc1ccc(S(=O)(=O)N(C)c2cc(OC)cc(OC)c2)cc1` [Compound 2, N-(3,5-dimethoxyphenyl)-4-methoxy-N-methylbenzenesulphonamide], the melting point fell in the range of 120 to 128 °C. Moreover, the IC50 in data set [1] was 877 nM. Also, in data set [5], the IC50 was determined as 765 nM. In addition, the IC50 in data set [2] (setting [6]) was over 1000 nM. In addition, in data set [3], the “TPI % 10 µM” value is on record as 10% and the IC50 was over 10000 nM. In addition, the solubility at 48 h in data set [4] was found to be 35 µg/mL (≈ 104 µM).

Values taken from PMC8205030, “Methoxy and bromo scans on N-(5-methoxyphenyl) methoxybenzenesulphonamides reveal potent cytotoxic compounds, especially against the human breast adenocarcinoma MCF7 cell line” (Journal of Enzyme Inhibition and Medicinal Chemistry, 2021).
